Laboratory results taken from US9260759B2, “Pyrazoloanthrone and derivatives thereof for the treatment of cancers expressing MISRII” (The General Hospital Corporation, priority 2007, dated 2016).
pIC50: −log10 of the molar value.

What was measured:
Format in all cases: cell-based
COS7 cells [1] = test: BRE-luciferase reporter assay in COS7 cells transfected with control plasmid (EGFP-N1) instead of MISRII; conditions: increasing doses, 24 h
From the text: COS7 cells were transiently transfected with MISRH, BRE-Luciferase and phRL-CMV. […] Control cells were transfected with a control plasmid (EGFP-N1 plasmid) instead of the receptor plasmid to keep the total DNA transfected constant. The results shown are the fold-induction over vehicle treated cells and normalized to phRL-CMV expression to correct for variations in cell number and transfection efficiency. […] The results represent the mean values from three independent experiments performed in triplicates (Error bars represent SEM, *p<0.05, **p<0.001).
COS7 cells were plated at a density of 5000 cells/well in 96-well plates for secondary screens. The day after plating cells were transfected with rat MISRII receptor or EGFP-N1 (Clontech, Mountain View Calif.) together with BRE firefly luciferase reporter construct and phRL-CMV using TransIT-LT1 transfection reagent (Mirus Bio Corporation, Madison Wis.). […] Results were obtained using the Dual Luciferase reporter assay according to the manufacturer's instructions (Promega). Plates were read in a Wallac Victor2 luminometer (PerkinElmer, Wellesley Mass.).

MISRIIK228R = target: T1, MISRIIK228R (Rattus norvegicus, UniProt Q62893, K228R); test: BRE-luciferase reporter assay in COS7 cells with kinase-deficient receptor MISRIIK228R
T1 construct: expressed in transfected cells; host or cells: COS7
T1 sequence (Q62893 18-557 K228R): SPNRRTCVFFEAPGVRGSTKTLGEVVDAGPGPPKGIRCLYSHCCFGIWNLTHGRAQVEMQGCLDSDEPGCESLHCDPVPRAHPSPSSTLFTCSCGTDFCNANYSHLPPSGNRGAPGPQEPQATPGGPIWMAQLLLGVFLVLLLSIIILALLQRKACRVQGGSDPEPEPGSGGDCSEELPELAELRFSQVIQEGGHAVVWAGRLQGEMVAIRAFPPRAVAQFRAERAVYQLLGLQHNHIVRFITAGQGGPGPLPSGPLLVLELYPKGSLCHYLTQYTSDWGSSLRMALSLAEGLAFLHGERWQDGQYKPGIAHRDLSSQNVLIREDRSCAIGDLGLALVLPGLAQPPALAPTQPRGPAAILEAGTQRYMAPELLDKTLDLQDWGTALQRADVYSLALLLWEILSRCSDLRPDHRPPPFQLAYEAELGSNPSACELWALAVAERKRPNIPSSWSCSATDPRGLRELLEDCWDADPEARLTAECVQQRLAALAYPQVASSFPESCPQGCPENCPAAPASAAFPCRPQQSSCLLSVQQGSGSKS
From the text: Results shown represent the mean values from four independent experiments performed in triplicates (Error bars represent standard error of the mean, *, P<0.05).

[2] = target: T2, type II receptor for TGFβ (Homo sapiens, UniProt P37173); test: CAGA-promoter luciferase reporter in COS7 cells co-transfected with TGFβ type II receptor; conditions: alone or in combination with the receptor-ligand, COS7 (data not shown)
T2 construct: expressed in transfected cells; host or cells: COS7
T2 sequence (P37173 23-567): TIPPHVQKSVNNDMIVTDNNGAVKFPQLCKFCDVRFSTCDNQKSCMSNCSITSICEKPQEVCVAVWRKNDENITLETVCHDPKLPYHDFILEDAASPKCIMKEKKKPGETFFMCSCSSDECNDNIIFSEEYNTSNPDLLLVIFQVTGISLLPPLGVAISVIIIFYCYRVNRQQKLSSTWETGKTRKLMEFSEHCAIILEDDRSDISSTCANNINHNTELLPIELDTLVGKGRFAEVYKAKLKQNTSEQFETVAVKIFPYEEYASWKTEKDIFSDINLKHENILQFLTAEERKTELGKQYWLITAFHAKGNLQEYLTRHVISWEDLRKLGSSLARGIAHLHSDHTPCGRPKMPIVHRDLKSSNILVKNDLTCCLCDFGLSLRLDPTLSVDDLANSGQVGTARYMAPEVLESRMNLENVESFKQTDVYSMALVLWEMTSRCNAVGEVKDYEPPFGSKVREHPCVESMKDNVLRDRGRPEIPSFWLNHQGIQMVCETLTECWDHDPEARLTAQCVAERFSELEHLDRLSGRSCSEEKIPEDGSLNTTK

endogenous MISRII = target: T3, endogenous MISRII (Mus musculus, UniProt Q8K592); test: BRE-luciferase reporter assay in MOVCAR7 cells expressing endogenous MISRII
T3 construct: a mouse ovarian cancer cell line, MOVCAR7, that expresses endogenous MISRII; endogenous in cells; host or cells: MOVCAR7 (mouse ovarian cancer cell line)
T3 sequence (Q8K592 16-568): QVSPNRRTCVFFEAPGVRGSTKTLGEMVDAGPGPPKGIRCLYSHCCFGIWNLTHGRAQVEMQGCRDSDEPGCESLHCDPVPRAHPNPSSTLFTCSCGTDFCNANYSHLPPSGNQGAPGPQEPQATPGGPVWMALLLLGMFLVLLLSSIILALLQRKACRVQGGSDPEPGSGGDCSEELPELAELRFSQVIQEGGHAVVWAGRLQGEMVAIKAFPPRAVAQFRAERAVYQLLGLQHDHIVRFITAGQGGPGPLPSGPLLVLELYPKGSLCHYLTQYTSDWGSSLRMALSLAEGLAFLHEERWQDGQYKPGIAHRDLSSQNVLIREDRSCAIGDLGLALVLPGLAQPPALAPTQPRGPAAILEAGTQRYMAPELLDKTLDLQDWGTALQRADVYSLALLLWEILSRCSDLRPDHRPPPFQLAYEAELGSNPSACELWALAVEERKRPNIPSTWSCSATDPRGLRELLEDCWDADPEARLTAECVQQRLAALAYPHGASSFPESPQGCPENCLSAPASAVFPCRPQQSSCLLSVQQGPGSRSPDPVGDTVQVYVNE

MOVCAR7 cells = test: MTT proliferation assay, MOVCAR7 cells; conditions: Mus musculus, 168 h; MOVCAR cells, 7 days, MTT; read-out: IC50, inhibition of cell proliferation
Description: (§1) Cells were plated in 96-well plates and treated the day after. Seven days after plating the cell survival was measured using 3-(4,5-dimethylthiazol-2-yl)-2,5-diphenyltetrazolium bromide substrate and measuring the absorbance at 550 nm.
(§2) (Connolly, 2003). The 4306 cells were provided by Dr. Daniela Dinulescu, Brigham and Women's (Boston) (30). Cells were plated at a density of 1000 cells/well in 96-well plates and treated 24 h later. The cell proliferation was measured after 7 days by registering the absorbance at 550 nm. Paclitaxel was manufactured by Ivax Pharmaceuticals and obtained from the MGH pharmacy.
(§3) The cells were treated for 7 days and the proliferation was measured by spectrophotometry. To exclude cytotoxic effects on the cells unrelated to MIS signal transduction, we used untransfected COS7 cells as a negative control. […] Paclitaxel is used in treatment of a wide range of tumors, but the side effects can be debilitating (Pieretti-Vanmarcke, 2006a, Pieretti-Vanmarcke, 2006b).

COS7 cells [3] = test: MTT proliferation assay, untransfected COS7 cells (negative control); conditions: Chlorocebus aethiops, COS-7, 168 h, 7 days, read-out: IC50, inhibition of cell proliferation
Description: as §1, §2, §3

cancer cells = test: Apoptosis of cancer cells; conditions: 2-5 μM as compared with 10-20 μM
From the text: Paclitaxel has been used in the treatment of a wide range of tumors, including ovarian, breast, and prostate. It exerts its effect by targeting the microtubules and arresting the cells in G2/M phase, leading to the induction of apoptosis (Bhalla et al, 2003, Oncogene 22:9075-908645). […] Additionally, paclitaxel is thought to exert a biphasic apoptosis effect through a p53-dependent pathway that induces apoptosis at lower concentrations, whereas at higher concentrations, it inhibits p53 expression in an […] carcinoma cell line (Tan et al., 2002; Int J Cancer 97:168-172).

O=C1c2ccccc2-c2n[nH]c3cccc1c23 [SP600125, anthra[1,9-cd]pyrazol-6(2H)-one]
induction of luciferase activity without MISRII (COS7 cells [1]): Only cells transfected with MISRII showed a significant induction
activation of BRE-luciferase with kinase-deficient receptor (MISRIIK228R; K228R receptor overexpressed, COS7, 24 hrs, agent alone): neither MIS nor SP600125 activates BRE-luciferase
further increase of BRE-luciferase activity by MIS in combination with SP600125, with K228R (MISRIIK228R; MIS plus SP600125, K228R receptor): completely abolished
effect on CAGA-luciferase reporter [2]: did not have any significant effect
increase in BRE-luciferase activity compared to untreated control (endogenous MISRII; 25 μM SP600125, MOVCAR7, 24 h): 5 fold
increase in the BRE-response, combined treatment (endogenous MISRII; MIS 5 μg/ml and SP600125 25 μM combined, MOVCAR7, 24 h): 16 fold
pIC50 (MOVCAR7 cells): 5.35
pIC50 (COS7 cells [3]): 5.02
apoptosis (cancer cells): did not result in apoptosis
